Reference: paper PMC7662321, “Andrographolide and Its 14-Aryloxy Analogues Inhibit Zika and Dengue Virus Infection” (Molecules, 2020)
Where two headings read alike, the source gives them in different places.

Legend:
PGK1 = assay: Western blot of PGK1 expression in treated A549 cells; format: cell-based, human; details: A549, 25 µM, 24 h, normalized to GAPDH
Method: To confirm the 2D-gel analysis results, HSPA1A and PGK1 were selected for the validation by Western blot. The same three experimental conditions were established, namely A549 cells treated with vehicle (0.025% DMSO), 25 μM andrographolide or 25 μM ZAD-1. Glyceraldehyde-3-phosphate dehydrogenase (GAPDH) was used as a loading control and the proteins were normalized to this protein. […] While the difference in HSPA1A expression between andrographolide treatment and ZAD-1 treatment is consistent with the spot intensity data (Table 3), the spot density for the control DMSO treatment is not consistent with the western blot result.
A total of 40 µg of proteins were separated by electrophoresis through a 12% sodium dodecyl sulfate (SDS) polyacrylamide gel and transferred to a nitrocellulose membrane by electroblotting. The membranes were blocked with 5% skim milk in TBS-T (20 mM Tris, 140 mM NaCl and 0.1% Tween-20) at room temperature for 1 h with shaking. […] The signal of specific protein bands was detected using the Luminata Forte Western HRP Substrate (Millipore Corp., Burlington, MA, USA) and recorded by film autoradiography. […]

DENV 2 = DENV 2 viral production in HEK293T/17 cells by standard plaque assay; format: cell-based, dengue virus; details: for Selective Index (SI): DENV, CC50 and EC50 in HEK293T/17 cells; for EC50: Dengue virus, read-out: EC50 against DENV 2 infection; for DENV 2 viral production, concentration dependence: HEK293T/17, MOI 5, 1 to 100 µM
Method: The effects of the compounds on DENV-2 infection were evaluated using HEK293T/17 as host cells at MOI of 5. The cells were infected with DENV 2 for 2 h and then the cells were incubated with the compounds at non-cytotoxic (or morphology altering) concentrations of 10 and 25 μM of ZAD-1 and ZAD-3, or 25 and 50 μM of ZAD-2, or 50 and 75 μM of andrographolide or 0.1% DMSO vehicle control. After 24 h of treatment, cells were harvested for determination of the percentage of infection by flow cytometry, while the culture supernatants were collected to determine the viral production.
Thus, the EC50 values of ZAD-1 and andrographolide were determined against ZIKV and DENV 2. For ZIKV, A549 cells were infected with ZIKV at MOI 5 and after 2 h of infection, the cells were incubated with ZAD-1 or andrographolide at a range of concentrations (1 to 100 µM) for 24 h, after which the supernatants were collected for determination of EC50 values by standard plaque assay. Both ZAD-1 and andrographolide reduced viral production in a dose-dependent manner (Figure 4A). […] For DENV 2, HEK293T/17 cells were infected with DENV 2 at MOI 5 for 2 h and followed by incubation with ZAD-1 or andrographolide at a range of concentrations (1 to 100 µM) for 24 h. […] The EC50 value for andrographolide in DENV infection is consistent with our previous study undertaken in HepG2 and HeLa cells with the same virus.
DENV 2 (strain 16681) and ZIKV (strain SV0010/15) virus stocks were propagated in C6/36 cells previously described, and virus titers were determined by standard plaque assay as described previously using Vero cells for ZIKV and LLC-MK2 cells for DENV.
HEK293T/17 or A549 cells were cultured in six-well plates under standard conditions until the cells reached 80% confluence. HEK293T/17 cells were infected with DENV 2, while A549 cells were infected with ZIKV Thai strain at MOI 5 for 2 h at 37 °C and 5% CO2 in culture medium without FBS. Mock infection was undertaken in parallel. After the infection period, the medium was removed and replaced with complete medium (including FBS) containing 0.1% DMSO (no treatment control) or the appropriate concentration of each compound and cells were again incubated under standard conditions. At 24 h post-treatment, cells were harvested for determination of effects of compounds on percentage of infection and supernatant was collected for determination of viral productivity. All experiments were undertaken independently in triplicate with duplicate plaque assay.

[1] = MTT cytotoxicity assay in HEK293T/17 cells; format: cell-based; details: human, HEK293T/17 cells (human embryonic kidney), 24 h post-treatment
Method: Cytotoxicity of each compound towards cells for four selected cell lines in the range of 1 to 500 µM was evaluated using the MTT (3-(4,5-dimethylthiazol-2-yl)-2,5-diphenyltetrazolium bromide) assay at 24 h post-treatment, in parallel with control and vehicle-treated cells (0.1% dimethyl sulfoxide (DMSO)). The 50% cytotoxic concentration (CC50) values calculated from the dose-response curve (Supplementary Figures S2–S5) are shown in Table 1. Overall, a range of cytotoxicities were seen from the four compounds across the […]. The most cytotoxic combination was ZAD-1 and BHK-21 cells, while the least cytotoxic combination was andrographolide and BHK-21 cells (Table 1).
A549 cells were cultured in ninety-six-well tissue culture plates under standard conditions until the cells reached 90% confluence. The cell culture medium was removed and then cells were incubated with various concentrations of andrographolide (1–100 μM) diluted in complete medium with FBS prior to being cultured for 24 h under standard conditions before analysis using either the Vybrant MTT Cell proliferation assay kit (V13154, Invitrogen) or the alamarBlue (Thermo Fischer Scientific, Waltham, MA, USA) assay kit according to the manufacturers recommendations. Values were determined from 8 (MTT assay) or 3 (alamarBlue) independent replicates. Negative controls (only media and media with 0.1% DMSO) and positive controls (5% DMSO) were included. To determine cell number, cell cultures were trypsinized by the addition of 0.25% Trypsin/0.1% ethylelediaminetetraacetic acid (EDTA) for 3 min and then cell suspensions were diluted with 0.4% trypan blue solution. Cells were counted using a hemocytometer. Cell morphology was additionally observed under an inverted microscope after 24 h treatment with various concentrations of each compound.
Figu re S5. Cytotoxicity of ZAD -1 (A), ZA D-2 (B), ZA D-3 (C), and andro grapholide (D) to HEK293T/17 (human embryonic kidney) cells.
HEK293T/17 cells were incubated with various concentrations of each compound for 24 hrs followed by MTT cell viability assay. The experiment was undertaken independently in 4 replicates. DMSO at the same concentrations was used as a control.
10% ethanol, PBS, and milli- Q water were used as a positive control of cell death. […]

SMILES: C=C1CC[C@@H]2[C@](C)(CO)[C@H](O)CC[C@@]2(C)[C@@H]1C/C=C1/C(=O)OC[C@H]1O [Andrographolide]
- PGK1 expression relative to the vehicle (PGK1): significantly upregulated
- Selective Index (SI) (DENV 2): 8.4
- EC50 (DENV 2; HEK293T/17, 24 h): 35.2 ± 2.5 µM
- DENV 2 viral production, concentration dependence (DENV 2; 24 h): dose-dependent reductions
- CC50 at 24 h [1]: 294 ± 96 µM

SMILES: C=C1CC[C@@H]2[C@]3(C)COC(C)(C)O[C@@H]3CC[C@@]2(C)[C@@H]1C/C=C1/C(=O)OC[C@@H]1Oc1c(Cl)cc(Cl)c2ccc(C)nc12 [ZAD-1]
- PGK1 expression as compared to andrographolide treatment (PGK1): significantly increased expression
- Selective Index (SI) (DENV 2): 6.6
- EC50 (DENV 2; HEK293T/17 cells, MOI 5, 24 h treatment post-infection, plaque assay): 22.6 ± 1.8 µM
- DENV 2 viral production, comparison among compounds (DENV 2; HEK293T/17, MOI 5, 25 µM, 24 h): greatest reduction
- DENV 2 viral production, concentration dependence (DENV 2; 24 h): dose-dependent reductions
- CC50 at 24 h [1]: 149 ± 40 µM
